Measurements: patent US10034915B2, “Small heat shock proteins and active fragments thereof as a therapy for inflammation and ischemia” (The Board of Trustees of the Leland Stanford Junior …, priority 2011, dated 2018)
“Also recorded” adds a separate entry of the source.

Test system: EAE mice
Test: EAE in 129Sv WT mice immunized with MOG35-55/CFA, clinical scoring
Type: in vivo, mouse
Conditions: vs PBS
Procedure: To investigate if the therapeutic efficacy of HSPB5 is a common feature of the whole family of small heat shock proteins, we expressed recombinant HSPB1, HSPB4, and HSPB5. We then treated EAE mice every other day starting at the peak of disease, when clinical paralysis is apparent, with an intraperitoneal (IP) administration of 10 μg of either HSPB1, HSPB4, HSPB5, or PBS as the vehicle control. […] Treating mice in vivo with HSPB1, HSPB4, or HSPB5 led to a reduction in the production of pro-inflammatory cytokines by MOG stimulated splenocytes taken from MOG immunized mice (FIG. 1c). Improvement of the clinical score was dependent on continued dosing of the sHSP. After dosing was stopped, symptoms returned, and paralysis worsened after 96 hours.
Therapeutic Peptides from HSPB5 in EAE. […] We made a series of overlapping, 15-mer peptide fragments of HSPB5 and treated mice at the peak of disease with 10 μg of each peptide every other day, using HSPB5 as a positive control and PBS as a negative control.
EAE induction and scoring. Mice were immunized subcutaneously with 100 μL of myelin oligodendrocyte glycoprotein (MOG) peptide 35-55 (2 mg/mL) and Complete Freund's adjuvant (CFA) (4 mg/mL) on Day 0. […] Mice were randomized at the peak of disease into the treatment groups where they received 10 ug/200 μL of sHSP, 1 μg/200 uL of sHSP peptide, or 200 μL of PBS (vehicle) every other day. Mice were scored every day on a clinical scoring system: 0, healthy mouse; 1, limp tail; 2, weak hindlimbs; 3, complete hindlimb paralysis; 4, weak forelimbs and paralyzed hindlimbs; 5, dead.

Question: With αB-crystallin [HSPB5] as the substance, how does the “EAE clinical scores over the course of the whole experiment (area under the curve)” value (10 μg sHSP protein IP every other day from peak of disease) read?
Answer: significantly improved

Question: What about the “clinical paralysis / EAE clinical scores” value (10 μg sHSP protein IP every other day starting at the peak of disease) of the same substance?
Answer: significantly ameliorated clinical paralysis; also recorded: therapeutic
